Test results from ChEMBL document CHEMBL4613212, “Insights of synthetic analogues of anti-leprosy agents” (Bioorg Med Chem, 2019).
Values after ≈ are worked out from the molar mass of the structure shown.

Experiments:
Enterococcus faecalis [1] = assay: Antimicrobial activity against Enterococcus faecalis ATCC 29212 by broth microdilution assay; type: functional
Staphylococcus aureus = assay: Antimicrobial activity against Staphylococcus aureus ATCC 25923 by broth microdilution assay; type: functional
Enterococcus faecalis [2] = assay: Antimicrobial activity against Enterococcus faecalis ATCC 51922 by broth microdilution assay; type: functional
Listeria monocytogenes = assay: Antimicrobial activity against Listeria monocytogenes ATCC 1911 by broth microdilution assay; type: functional
Klebsiella pneumoniae = assay: Antimicrobial activity against Klebsiella pneumoniae 700603 by broth microdilution assay; type: functional
Pseudomonas aeruginosa = assay: Antimicrobial activity against Pseudomonas aeruginosa ATCC 27853 by broth microdilution assay; type: functional
Escherichia coli [3] = assay: Antimicrobial activity against Escherichia coli ATCC 35218 by broth microdilution assay; type: functional
Escherichia coli [4] = assay: Antimicrobial activity against Escherichia coli ATCC 25922 by broth microdilution assay; type: functional
[5] = system: Mycobacterium tuberculosis; assay: Antitubercular activity against Mycobacterium tuberculosis H37Rv ATCC 27294 incubated for 7 days by microplate alamar blue assay; type: functional; details: H37Rv ATCC 27294, 168 h
Nakaseomyces glabratus = assay: Antifungal activity against Candida glabrata; type: functional
Mycobacterium leprae [6] = assay: Anti-leprotic activity against rifampicin-susceptible Mycobacterium leprae subcultures at 4 weeks assessed as ATP level per 10^7 cells at 0.2 mg/L measured by bioluminescence assay (reference value: 425 +/- 64 pg); type: functional
Mycobacterium leprae [7] = assay: Anti-leprotic activity against rifampicin-susceptible Mycobacterium leprae subcultures at 4 weeks assessed as ATP level per 10^7 cells at 0.025 mg/L measured by bioluminescence assay (reference value: 425 +/- 64 pg); type: functional
Mycobacterium leprae [8] = assay: Anti-leprotic activity against rifampicin-susceptible Mycobacterium leprae primary cultures at 4 weeks assessed as ATP level per 10^7 cells at 0.05 mg/L measured by bioluminescence assay (reference value: 332 +/- 46 pg); type: functional
Mycobacterium leprae [9] = assay: Anti-leprotic activity against rifampicin-susceptible Mycobacterium leprae primary cultures at 4 weeks assessed as ATP level per 10^7 cells at 0.025 mg/L measured by bioluminescence assay (reference value: 332 +/- 46 pg); type: functional
Mycobacterium leprae [10] = assay: Anti-leprotic activity against rifampicin-susceptible Mycobacterium leprae subcultures at 4 weeks assessed as ATP level per 10^7 cells at 0.1 mg/L measured by bioluminescence assay (reference value: 425 +/- 64 pg); type: functional
Mycobacterium leprae [11] = assay: Anti-leprotic activity against rifampicin-susceptible Mycobacterium leprae subcultures at 4 weeks assessed as ATP level per 10^7 cells at 0.05 mg/L measured by bioluminescence assay (reference value: 425 +/- 64 pg); type: functional
Mycobacterium leprae [12] = assay: Anti-leprotic activity against rifampicin-susceptible Mycobacterium leprae primary cultures at 4 weeks assessed as ATP level per 10^7 cells at 0.1 mg/L measured by bioluminescence assay (reference value: 332 +/- 46 pg); type: functional
Mycobacterium leprae [13] = assay: Anti-leprotic activity against rifampicin-susceptible Mycobacterium leprae primary cultures at 4 weeks assessed as ATP level per 10^7 cells at 0.2 mg/L measured by bioluminescence assay (reference value: 332 +/- 46 pg); type: functional
Mycobacterium leprae [14] = assay: Anti-leprotic activity against rifampicin-susceptible Mycobacterium leprae primary cultures at 4 weeks assessed as [3H]thymidine uptake per 5 times 10^7 cells at 0.025 mg/L incubated for 24 hrs (reference value: 1.05 +/- 0.16 pmol); type: functional
Mycobacterium leprae [15] = assay: Anti-leprotic activity against rifampicin-susceptible Mycobacterium leprae primary cultures at 4 weeks assessed as [3H]thymidine uptake per 5 times 10^7 cells at 0.05 mg/L incubated for 24 hrs (reference value: 1.05 +/- 0.16 pmol); type: functional
Mycobacterium leprae [16] = assay: Anti-leprotic activity against rifampicin-susceptible Mycobacterium leprae primary cultures at 4 weeks assessed as [3H]thymidine uptake per 5 times 10^7 cells at 0.1 mg/L incubated for 24 hrs (reference value: 1.05 +/- 0.16 pmol); type: functional
Mycobacterium leprae [17] = assay: Anti-leprotic activity against rifampicin-susceptible Mycobacterium leprae primary cultures at 4 weeks assessed as [3H]thymidine uptake per 5 times 10^7 cells at 0.2 mg/L incubated for 24 hrs (reference value: 1.05 +/- 0.16 pmol); type: functional
Mycobacterium leprae [18] = assay: Anti-leprotic activity against rifampicin-susceptible Mycobacterium leprae subcultures at 4 weeks assessed as [3H]thymidine uptake per 5 times 10^7 cells at 0.025 mg/L incubated for 24 hrs (reference value: 1.41 +/- 0.20 pmol); type: functional
Mycobacterium leprae [19] = assay: Anti-leprotic activity against rifampicin-susceptible Mycobacterium leprae subcultures at 4 weeks assessed as [3H]thymidine uptake per 5 times 10^7 cells at 0.05 mg/L incubated for 24 hrs (reference value: 1.41 +/- 0.20 pmol); type: functional
Mycobacterium leprae [20] = assay: Anti-leprotic activity against rifampicin-susceptible Mycobacterium leprae subcultures at 4 weeks assessed as [3H]thymidine uptake per 5 times 10^7 cells at 0.1 mg/L incubated for 24 hrs (reference value: 1.41 +/- 0.20 pmol); type: functional
Mycobacterium leprae [21] = assay: Anti-leprotic activity against rifampicin-susceptible Mycobacterium leprae subcultures at 4 weeks assessed as [3H]thymidine uptake per 5 times 10^7 cells at 0.2 mg/L incubated for 24 hrs (reference value: 1.41 +/- 0.20 pmol); type: functional
Mycobacterium leprae [22] = assay: Anti-leprotic activity against Mycobacterium leprae infected in BALB/c mouse assessed as time delay in bacterial multiplication in footpad at 0.011 g/100g of diet administered via feed starting 60 or 75 day post infection up to 90 days by Shepard's kinetic method; type: functional
Mycobacterium leprae [23] = assay: Anti-leprotic activity against Mycobacterium leprae infected in BALB/c mouse assessed as time delay in bacterial multiplication in footpad at 0.008 g/100g of diet administered via feed starting 60 or 75 day post infection up to 90 days by Shepard's kinetic method; type: functional
Monocyte [24] = assay: Antiinflammatory activity in human monocytes assessed as inhibition of LPS-induced TNFaplha production at 50 uM preincubated for 15 mins followed by LPS addition and measured after 4 hrs by ELISA relative to control; type: functional
[25] = Cytotoxicity against LPS-induced human monocytes assessed as cell viability at 50 uM by tryphan blue staining based assay relative to control; parameters: species or system Monocyte; details: read-out: Activity
Monocyte [26] = assay: Antiinflammatory activity in human monocytes assessed as inhibition of LPS-induced TNFaplha production preincubated for 15 mins followed by LPS addition and measured after 4 hrs by ELISA; type: functional, cell-based
Mycobacterium leprae [27] = assay: Anti-leprotic activity against Mycobacterium leprae infected in BALB/c mouse assessed as time delay in bacterial multiplication in footpad at 0.012 g/100g of diet administered via feed starting 60 or 75 day post infection up to 90 days by Shepard's kinetic method; type: functional
[28] = system: Mycobacterium tuberculosis; assay: Antitubercular activity against Mycobacterium tuberculosis H37Rv ATCC 27294 assessed as growth inhibition at 6.25 ug/ml by microplate alamar blue assay relative to control; type: functional
[29] = Selectivity index, ratio of IC50 for African green monkey Vero cells to MIC for antitubercular activity against Mycobacterium tuberculosis H37Rv; type: toxicity; details: Vero cells, read-out: Selectivity Index
[30] = system: Mycobacterium tuberculosis; assay: Antitubercular activity against Mycobacterium tuberculosis H37Rv ATCC 27294 assessed as inhibition of [3H]-thymidine incorporation at 1 ug/ml relative to control; type: functional

`O=[N+]([O-])c1ccc(/C=N/NC(=S)Nc2ccc(C(F)(F)F)cc2)cc1` gave an MIC (Enterococcus faecalis [1]) of 100 mg/L (≈ 271 µM), an MIC (Staphylococcus aureus) of 400 mg/L (≈ 1090 µM) and an MIC (Enterococcus faecalis [2]) of 400 mg/L (≈ 1090 µM). The MIC (Listeria monocytogenes) was 400 mg/L (≈ 1090 µM), the MIC (Klebsiella pneumoniae) was 400 mg/L (≈ 1090 µM) and the MIC (Pseudomonas aeruginosa) was 400 mg/L (≈ 1090 µM). The MIC (Escherichia coli [3]) was 400 mg/L (≈ 1090 µM), the MIC (Escherichia coli [4]) was 400 mg/L (≈ 1090 µM) and the MIC [5] was 400 mg/L (≈ 1090 µM). The MIC (Nakaseomyces glabratus) was 200 mg/L (≈ 543 µM).

Compound `CCC(C)N1CCN(c2cc(O)c3nc4c5c6c7c(C)c(O)c5c(=O)c(c-4oc3c2)NC(=O)/C(C)=C\C=C\[C@H](C)[C@H](O)[C@@H](C)[C@@H](O)[C@@H](C)[C@H](OC(C)=O)[C@H](C)[C@@H](OC)/C=C/O[C@@](C)(O7)C6=O)CC1` (stereo in doubt; form 2) has an Activity (Mycobacterium leprae [6]) of 0 pg, an Activity (Mycobacterium leprae [7]) of 363 pg and an Activity (Mycobacterium leprae [8]) of 233 pg. For the same compound, the Activity (Mycobacterium leprae [9]) was 298 pg, the Activity (Mycobacterium leprae [10]) was 0 pg and the Activity (Mycobacterium leprae [11]) was 221 pg. The Activity (Mycobacterium leprae [12]) was 0 pg, the Activity (Mycobacterium leprae [13]) was 0 pg and the Activity (Mycobacterium leprae [14]) was 0.298 pmol. The Activity (Mycobacterium leprae [15]) was 0.77 pmol, the Activity (Mycobacterium leprae [16]) was 0 pmol and the Activity (Mycobacterium leprae [17]) was 0 pmol. For the same compound, the Activity (Mycobacterium leprae [18]) was 0 pmol, the Activity (Mycobacterium leprae [19]) was 1.28 pmol and the Activity (Mycobacterium leprae [20]) was 0.76 pmol. For the same compound, the Activity (Mycobacterium leprae [21]) was 0 pmol.

For `CC(=O)Nc1ccc(S(=O)(=O)c2ccc(NC(C)=O)cc2O)cc1`, the Time (Mycobacterium leprae [22]) was 126 days.

For `Nc1ccc(Cc2ccc(N)cc2)cc1`, the Time (Mycobacterium leprae [23]) was <10 days.

For `CCC1(N2C(=O)c3cccc([N+](=O)[O-])c3C2=O)C(=O)NC(=O)N(c2ccccc2)C1=O` (stereo not given), the inhibition at 50 µM (Monocyte [24]) was < 10%, the viability at 50 µM [25] was 77% and the IC50 (Monocyte [26]) was 3000 µM.

For `Fc1ccc(/C=N/NC(=S)Nc2ccc(C(F)(F)F)cc2)cc1`, the MIC (Enterococcus faecalis [1]) was 200 mg/L (≈ 586 µM), the MIC (Staphylococcus aureus) was 100 mg/L (≈ 293 µM) and the MIC (Enterococcus faecalis [2]) was 1600 mg/L (≈ 4690 µM). The MIC (Listeria monocytogenes) was 1600 mg/L (≈ 4690 µM), the MIC (Klebsiella pneumoniae) was 800 mg/L (≈ 2340 µM) and the MIC (Pseudomonas aeruginosa) was 1600 mg/L (≈ 4690 µM). The MIC (Escherichia coli [3]) was 1600 mg/L (≈ 4690 µM), the MIC (Escherichia coli [4]) was 400 mg/L (≈ 1170 µM) and the MIC [5] was 400 mg/L (≈ 1170 µM). For the same compound, the MIC (Nakaseomyces glabratus) was 200 mg/L (≈ 586 µM).

Work on `CC(=O)Nc1ccc(S(=O)(=O)c2ccc(NC(C)=O)cc2Cl)cc1` yielded a Time (Mycobacterium leprae [27]) of 85 days.

With `c1ccc(Cn2cnc3c(-c4cccs4)ncnc32)cc1` the inhibition at 6.25 µg/mL [28] was > 90%, the selectivity ratio [29] was > 1.6 and the inhibition at 1 µg/mL [30] was < 10%.
